{"source": "ChEMBL document CHEMBL5576117", "about": "“Importance of isoleucine residue in ion channel formation ability of 11-residue peptaibols” (Bioorg Med Chem, 2024)", "key": {"Erythrocyte [1]": {"tested_on": "Erythrocyte", "assay": "Hemolytic activity in human erythrocytes at 50 ug/ml incubated for 1 hr by absorbance based analysis", "assay_type": "toxicity, cell-based", "conditions": "dose 50 µg/ml"}, "Erythrocyte [2]": {"tested_on": "Erythrocyte", "assay": "Hemolytic activity in human erythrocytes at 10 ug/ml incubated for 1 hr by absorbance based analysis", "assay_type": "toxicity, cell-based", "conditions": "dose 10 µg/ml"}, "[3]": {"assay": "Ion conductance property of compound in Diphytanoylphosphatidyl-choline bilayer assessed as ion channel forming ability at 1 uM treated at cis-side of the membrane at +100 mV by tip-dip patch clamp method"}}, "note": "Active and inactive are the calls of the source. No cut-off for these calls is given here. Where a SMILES comes first, the peptide text is derived from it. [ ]: non-standard residue; d: D form. Aib = CC(C)(N)C(=O)O", "data": [{"molecule": "CC[C@H](C)[C@H](NC(=O)[C@@H](NC(=O)[C@@H]1CCCN1C(=O)C(C)(C)NC(=O)[C@H](CC(C)C)NC(=O)[C@H](CC(C)C)NC(=O)[C@H](CC(N)=O)NC(=O)C(C)(C)NC(C)=O)[C@@H](C)CC)C(=O)NC(C)(C)C(=O)N1CCC[C@H]1C(=O)N[C@@H](CC(C)C)C(=O)O", "note": "(Ac-[Aib]NLL[Aib]PII[Aib]PL-OH)", "values": [{"measurement": "Activity", "setting": "Erythrocyte [1]", "result": "Toxic"}, {"measurement": "Activity", "setting": "Erythrocyte [2]", "result": "Non-Toxic"}]}, {"molecule": "CC[C@H](C)[C@H](NC(=O)[C@H](CC(C)C)NC(=O)[C@@H]1CCCN1C(=O)C(C)(C)NC(=O)[C@H](CC(C)C)NC(=O)[C@H](CC(C)C)NC(=O)[C@H](CC(N)=O)NC(=O)C(C)(C)NC(C)=O)C(=O)NC(C)(C)C(=O)N1CCC[C@H]1C(=O)N[C@@H](CC(C)C)C(=O)O", "note": "(Ac-[Aib]NLL[Aib]PLI[Aib]PL-OH)", "values": [{"measurement": "Activity", "setting": "Erythrocyte [1]", "result": "Toxic"}, {"measurement": "Activity", "setting": "Erythrocyte [2]", "result": "Non-Toxic"}]}, {"molecule": "CC[C@H](C)[C@H](NC(=O)[C@@H]1CCCN1C(=O)C(C)(C)NC(=O)[C@@H](NC(=O)[C@@H](NC(=O)[C@@H]1CCCN1C(=O)C(C)(C)NC(=O)[C@H](CC(C)C)NC(=O)[C@H](CC(C)C)NC(=O)[C@H](CC(N)=O)NC(=O)C(C)(C)NC(C)=O)[C@@H](C)CC)[C@@H](C)CC)C(=O)O", "note": "(Ac-[Aib]NLL[Aib]PII[Aib]PI-OH)", "values": [{"measurement": "Activity", "setting": "[3]", "result": "Active"}, {"measurement": "Activity", "setting": "Erythrocyte [1]", "result": "Toxic"}]}, {"molecule": "CC[C@H](C)[C@H](NC(=O)[C@H](CC(C)C)NC(=O)[C@H](CC(N)=O)NC(=O)C(C)(C)NC(C)=O)C(=O)NC(C)(C)C(=O)N1CCC[C@H]1C(=O)N[C@H](C(=O)N[C@H](C(=O)NC(C)(C)C(=O)N1CCC[C@H]1C(=O)N[C@@H](CC(C)C)C(=O)O)[C@@H](C)CC)[C@@H](C)CC", "note": "(Ac-[Aib]NLI[Aib]PII[Aib]PL-OH)", "values": [{"measurement": "Activity", "setting": "[3]", "result": "inactive"}, {"measurement": "Activity", "setting": "Erythrocyte [1]", "result": "Toxic"}, {"measurement": "Activity", "setting": "Erythrocyte [2]", "result": "Non-Toxic"}]}, {"molecule": "CC[C@H](C)[C@H](NC(=O)[C@@H]1CCCN1C(=O)C(C)(C)NC(=O)[C@@H](NC(=O)[C@H](CC(C)C)NC(=O)[C@@H]1CCCN1C(=O)C(C)(C)NC(=O)[C@H](CC(C)C)NC(=O)[C@H](CC(C)C)NC(=O)[C@H](CC(N)=O)NC(=O)C(C)(C)NC(C)=O)[C@@H](C)CC)C(=O)O", "note": "(Ac-[Aib]NLL[Aib]PLI[Aib]PI-OH)", "values": [{"measurement": "Activity", "setting": "[3]", "result": "Active"}, {"measurement": "Activity", "setting": "Erythrocyte [1]", "result": "Toxic"}]}, {"molecule": "CC(=O)NC(C)(C)C(=O)N[C@@H](CC(N)=O)C(=O)N[C@@H](CC(C)C)C(=O)N[C@@H](CC(C)C)C(=O)NC(C)(C)C(=O)N1CCC[C@H]1C(=O)N[C@@H](CC(C)C)C(=O)N[C@@H](CC(C)C)C(=O)NC(C)(C)C(=O)N1CCC[C@H]1C(=O)N[C@@H](CC(C)C)C(=O)O", "note": "(Ac-[Aib]NLL[Aib]PLL[Aib]PL-OH)", "values": [{"measurement": "Activity", "setting": "[3]", "result": "inactive"}, {"measurement": "Activity", "setting": "Erythrocyte [1]", "result": "Toxic"}, {"measurement": "Activity", "setting": "Erythrocyte [2]", "result": "Non-Toxic"}]}, {"molecule": "CC[C@H](C)[C@H](NC(=O)[C@@H]1CCCN1C(=O)C(C)(C)NC(=O)[C@@H](NC(=O)[C@@H](NC(=O)[C@@H]1CCCN1C(=O)C(C)(C)NC(=O)[C@@H](NC(=O)[C@@H](NC(=O)[C@H](CC(N)=O)NC(=O)C(C)(C)NC(C)=O)[C@@H](C)CC)[C@@H](C)CC)[C@@H](C)CC)[C@@H](C)CC)C(=O)O", "note": "(Ac-[Aib]NII[Aib]PII[Aib]PI-OH)", "values": [{"measurement": "Activity", "setting": "[3]", "result": "Active"}, {"measurement": "Activity", "setting": "Erythrocyte [1]", "result": "Toxic"}, {"measurement": "Activity", "setting": "Erythrocyte [2]", "result": "Non-Toxic"}]}, {"molecule": "CC[C@H](C)[C@H](NC(=O)[C@@H]1CCCN1C(=O)C(C)(C)NC(=O)[C@H](CC(C)C)NC(=O)[C@@H](NC(=O)[C@@H]1CCCN1C(=O)C(C)(C)NC(=O)[C@@H](NC(=O)[C@@H](NC(=O)[C@H](CC(N)=O)NC(=O)C(C)(C)NC(C)=O)[C@@H](C)CC)[C@@H](C)CC)[C@@H](C)CC)C(=O)O", "note": "(Ac-[Aib]NII[Aib]PIL[Aib]PI-OH)", "values": [{"measurement": "Activity", "setting": "[3]", "result": "Active"}, {"measurement": "Activity", "setting": "Erythrocyte [1]", "result": "Toxic"}, {"measurement": "Activity", "setting": "Erythrocyte [2]", "result": "Non-Toxic"}]}, {"molecule": "CC[C@H](C)[C@H](NC(=O)[C@@H]1CCCN1C(=O)C(C)(C)NC(=O)[C@H](CC(C)C)NC(=O)[C@H](CC(C)C)NC(=O)[C@@H]1CCCN1C(=O)C(C)(C)NC(=O)[C@@H](NC(=O)[C@@H](NC(=O)[C@H](CC(N)=O)NC(=O)C(C)(C)NC(C)=O)[C@@H](C)CC)[C@@H](C)CC)C(=O)O", "note": "(Ac-[Aib]NII[Aib]PLL[Aib]PI-OH)", "values": [{"measurement": "Activity", "setting": "[3]", "result": "Active"}, {"measurement": "Activity", "setting": "Erythrocyte [1]", "result": "Toxic"}, {"measurement": "Activity", "setting": "Erythrocyte [2]", "result": "Non-Toxic"}]}, {"molecule": "CC[C@H](C)[C@H](NC(=O)[C@@H]1CCCN1C(=O)C(C)(C)NC(=O)[C@H](CC(C)C)NC(=O)[C@H](CC(C)C)NC(=O)[C@@H]1CCCN1C(=O)C(C)(C)NC(=O)[C@H](CC(C)C)NC(=O)[C@H](CC(C)C)NC(=O)[C@H](CC(N)=O)NC(=O)C(C)(C)NC(C)=O)C(=O)O", "note": "(Ac-[Aib]NLL[Aib]PLL[Aib]PI-OH)", "values": [{"measurement": "Activity", "setting": "[3]", "result": "Active"}, {"measurement": "Activity", "setting": "Erythrocyte [1]", "result": "Toxic"}, {"measurement": "Activity", "setting": "Erythrocyte [2]", "result": "Non-Toxic"}]}, {"molecule": "CC[C@H](C)[C@H](NC(=O)[C@H](CC(N)=O)NC(=O)C(C)(C)NC(C)=O)C(=O)N[C@H](C(=O)NC(C)(C)C(=O)N1CCC[C@H]1C(=O)N[C@@H](CC(C)C)C(=O)N[C@@H](CC(C)C)C(=O)NC(C)(C)C(=O)N1CCC[C@H]1C(=O)N[C@@H](CC(C)C)C(=O)O)[C@@H](C)CC", "note": "(Ac-[Aib]NII[Aib]PLL[Aib]PL-OH)", "values": [{"measurement": "Activity", "setting": "[3]", "result": "Active"}, {"measurement": "Activity", "setting": "Erythrocyte [1]", "result": "Toxic"}, {"measurement": "Activity", "setting": "Erythrocyte [2]", "result": "Non-Toxic"}]}, {"molecule": "CC[C@H](C)[C@H](NC(=O)[C@H](CC(N)=O)NC(=O)C(C)(C)NC(C)=O)C(=O)N[C@H](C(=O)NC(C)(C)C(=O)N1CCC[C@H]1C(=O)N[C@H](C(=O)N[C@@H](CC(C)C)C(=O)NC(C)(C)C(=O)N1CCC[C@H]1C(=O)N[C@@H](CC(C)C)C(=O)O)[C@@H](C)CC)[C@@H](C)CC", "note": "(Ac-[Aib]NII[Aib]PIL[Aib]PL-OH)", "values": [{"measurement": "Activity", "setting": "[3]", "result": "inactive"}, {"measurement": "Activity", "setting": "Erythrocyte [1]", "result": "Toxic"}, {"measurement": "Activity", "setting": "Erythrocyte [2]", "result": "Non-Toxic"}]}, {"molecule": "CC[C@H](C)[C@H](NC(=O)[C@H](CC(N)=O)NC(=O)C(C)(C)NC(C)=O)C(=O)N[C@H](C(=O)NC(C)(C)C(=O)N1CCC[C@H]1C(=O)N[C@H](C(=O)N[C@H](C(=O)NC(C)(C)C(=O)N1CCC[C@H]1C(=O)N[C@@H](CC(C)C)C(=O)O)[C@@H](C)CC)[C@@H](C)CC)[C@@H](C)CC", "note": "(Ac-[Aib]NII[Aib]PII[Aib]PL-OH)", "values": [{"measurement": "Activity", "setting": "[3]", "result": "Active"}, {"measurement": "Activity", "setting": "Erythrocyte [1]", "result": "Toxic"}]}, {"molecule": "CC[C@H](C)[C@H](NC(=O)[C@H](CC(N)=O)NC(=O)C(C)(C)NC(C)=O)C(=O)N[C@@H](CC(C)C)C(=O)NC(C)(C)C(=O)N1CCC[C@H]1C(=O)N[C@@H](CC(C)C)C(=O)N[C@@H](CC(C)C)C(=O)NC(C)(C)C(=O)N1CCC[C@H]1C(=O)N[C@@H](CC(C)C)C(=O)O", "note": "(Ac-[Aib]NIL[Aib]PLL[Aib]PL-OH)", "values": [{"measurement": "Activity", "setting": "[3]", "result": "inactive"}, {"measurement": "Activity", "setting": "Erythrocyte [1]", "result": "Toxic"}, {"measurement": "Activity", "setting": "Erythrocyte [2]", "result": "Non-Toxic"}]}, {"molecule": "CC[C@H](C)[C@H](NC(=O)[C@@H]1CCCN1C(=O)C(C)(C)NC(=O)[C@@H](NC(=O)[C@@H](NC(=O)[C@@H]1CCCN1C(=O)C(C)(C)NC(=O)[C@@H](NC(=O)[C@H](CC(C)C)NC(=O)[C@H](CC(N)=O)NC(=O)C(C)(C)NC(C)=O)[C@@H](C)CC)[C@@H](C)CC)[C@@H](C)CC)C(=O)O", "note": "(Ac-[Aib]NLI[Aib]PII[Aib]PI-OH)", "values": [{"measurement": "Activity", "setting": "[3]", "result": "Active"}, {"measurement": "Activity", "setting": "Erythrocyte [1]", "result": "Toxic"}, {"measurement": "Activity", "setting": "Erythrocyte [2]", "result": "Non-Toxic"}]}]}
